Reference: patent publication US11560370B1, “5-membered heteroaryl carboxamide compounds for treatment of HBV” (Assembly Biosciences, Inc., priority 2018, dated 2023)
Where “and” joins values, the source holds several entries; their conditions need not be identical. Identical values can stand only once. Like-named read-outs stand apart in the source and are kept apart here.

System: HBV
Assay: Viral production from HepAD38 cells, viral load by qPCR of HBV core sequence
Assay type: cell-based
Details: 5 days, supernatant HBV DNA by qPCR, read-out: Viral Load EC50 Activity range
Protocol: Assay Measuring Activity of Test Compounds on Viral Production from HepAD38 Cells
HepAD38 cells grown in a T-150 flask (Corning, cat #: 430825) with Growth Medium (DMEM/F12 (1:1) (Hyclone, cat #: SH30023.02), 1× Pen/Strep (Invitrogen, cat #: 15140-122), 10% FBS (Tissue Culture Biologics, cat #: 101), 250 μg/mL G418 (Alfa Aesar, cat #: J62671), 1 μg/mL Tetracycline (Teknova, cat #: T3320)) were detached with 0.25% trypsin-EDTA to (Invitrogen, cat #: 25200-056). Tetracycline-free treatment medium (15 mL DMEM/F12 (1:1) 1× Pen/step, with 2% FBS, Tet-system approved (Clontech, cat #: 631106) were then added to mix, transferred into a 50 ml conical tube (Falcon, cat #: 21008-918,) and spun at 1300 rpm for 5 min. Pelleted cells were then re-suspended/washed with 50 mL of 1×DPBS (Invitrogen, cat #: 14190-136) 2 times and 50 mL treatment medium twice. HepAD38 cells were then re-suspended with 10 mL of treatment medium, syringed and counted. Wells of 96-well clear bottom TC plate (Corning, cat #: 3904,) were seeded at 50,000 cells/well in 180 μL of treatment medium, and 20 μL of either 10% DMSO (Sigma, cat #: D4540) as controls or a 10× solution of test compounds in 10% DMSO in treatment media was added for a final compound concentration starting at 10 μM, and plates were incubated in 5% CO2 incubator at 37° C. for 5 days.
Subsequently viral load production was assayed by quantitative PCR (qPCR) of the HBV core sequence. PCR reaction mixture containing forward primers HBV-f 5′-CTGTGCCTTGGGTGGCTTT-3′ (IDT DNA), Reverse primers HBV-r 5′-[…]-3′ (IDT DNA), Fluorescent TaqMan™ Probes HBV-probe 5′-FAM/AGCTCCAAA/ZEN/[…]/3IABkFQ-3′ (IDT DNA), 10 μL/well of PerfeCTa® qPCR ToughMix® (Quanta Biosciences, Cat #: 95114-05K), and 6 μL/well of DEPC water (Alfa Aesar, cat #: J62087) was prepared. […] of supernatant was added to 16 μL of the reaction mixture in a qPCR plate (Applied Biosytems, Cat #: 4309849), sealed with a film (Applied Biosystems, Cat #: 4311971), centrifuged for a few seconds, and subsequently run on an Applied Biosystems VIIA7. The PCR mixture was incubated at 45° C. for 5 min, then 95° C. for 10 min, followed by 40 cycles of 10 seconds at 95° C. and 20 seconds at 60° C. Viral load was quantified against known HBV DNA standards by using ViiA™ 7 Software. Viral load in the supernatant from wells with treated cells were compared against viral load in supernatant from DMSO control wells (>3 per plate). Cell viability assay was performed with CellTiter-Glo Luminescent Cell Viability Assay (Promega, cat #: G7573) with modification. Mixed appropriate amount of CellTiter-Glo (CTG) 1×DPBS in a 1:1 ratio, added 100 uL of the mixture to each well followed completely removal of all supernatant in each well without touching cell surface. Incubated the plate at room temperature for 10 min on an orbital shaker, and then read the plate with a plate reader (TECAN M1000 or Envision). EC50 or CC50 values were calculated through curve-fitting of the four-parameter nonlinear-logistic-regression model (GraphPad Prism or Dotmatics). CC50 values were all >10 μM.

[1] = Hepatitis B virus, HePAD38, 120 h

Molecule	EC50	EC50 [1] [nM]
5-Amino-N-(3-chloro-4-fluorophenyl)-1-methyl-3-(3-(pyridin-4-yl)cyclopentyl)-1H-pyrazole-4-carboxamide [AIA-271]	< 100 nM	
5-Amino-N-(3-chloro-4-fluorophenyl)-3-(3-(3-chlorophenyl)cyclopentyl)-1-methyl-1H-pyrazole-4-carboxamide [AIA-273]	< 100 nM and 100 to 500 nM	
Cn1cc(C2CCC(c3nn(C)c(N)c3C(=O)Nc3ccc(F)c(Cl)c3)C2)cn1 (single isomer, unassigned) [AIA-004-A, 5-Amino-N-(3-chloro-4-fluorophenyl)-1-methyl-3-(3-(1-methyl-1H-pyrazol-4-yl)cyclopentyl)-1H-pyrazole-4-carboxamide]	< 100 nM	
Cn1cc(C2CCC(c3nn(C)c(N)c3C(=O)Nc3ccc(F)c(Cl)c3)C2)cn1 (single isomer, unassigned) [AIA-004-B, 5-Amino-N-(3-chloro-4-fluorophenyl)-1-methyl-3-(3-(1-methyl-1H-pyrazol-4-yl)cyclopentyl)-1H-pyrazole-4-carboxamide]		100 to 500
Cn1cc(C2CCC(c3nn(C)c(N)c3C(=O)Nc3ccc(F)c(Cl)c3)C2)cn1 (single isomer, unassigned) [AIA-004-C, 5-Amino-N-(3-chloro-4-fluorophenyl)-1-methyl-3-(3-(1-methyl-1H-pyrazol-4-yl)cyclopentyl)-1H-pyrazole-4-carboxamide]	100 to 500 nM	
Cn1cc(C2CCC(c3nn(C)c(N)c3C(=O)Nc3ccc(F)c(Cl)c3)C2)cn1 (single isomer, unassigned) [AIA-004-D, 5-Amino-N-(3-chloro-4-fluorophenyl)-1-methyl-3-(3-(1-methyl-1H-pyrazol-4-yl)cyclopentyl)-1H-pyrazole-4-carboxamide]	< 100 nM	
Cn1nc(C2CC3CNC(=O)CC3C2)c(C(=O)Nc2ccc(F)c(Cl)c2)c1N (single isomer, unassigned) [AIA-033-A, 5-Amino-N-(3-chloro-4-fluorophenyl)-1-methyl-3-(3-oxooctahydro-1H-cyclopenta[c]pyridin-6-yl)-1H-pyrazole-4-carboxamide]		100 to 500
Cn1nc(C2CC3CNC(=O)CC3C2)c(C(=O)Nc2ccc(F)c(Cl)c2)c1N (single isomer, unassigned) [AIA-033-B, 5-Amino-N-(3-chloro-4-fluorophenyl)-1-methyl-3-(3-oxooctahydro-1H-cyclopenta[c]pyridin-6-yl)-1H-pyrazole-4-carboxamide]	< 100 nM	
Cn1nc(C2CC3C[S+]([O-])CC3C2)c(C(=O)Nc2ccc(F)c(Cl)c2)c1N (single isomer, unassigned) [AIA-056-A, 5-Amino-N-(3-chloro-4-fluorophenyl)-1-methyl-3-(2-oxidohexahydro-1H-cyclopenta[c]thiophen-5-yl)-1H-pyrazole-4-carboxamide]		500 to 10000
Cn1nc(C2CC3C[S+]([O-])CC3C2)c(C(=O)Nc2ccc(F)c(Cl)c2)c1N (single isomer, unassigned) [AIA-056-B, 5-Amino-N-(3-chloro-4-fluorophenyl)-1-methyl-3-(2-oxidohexahydro-1H-cyclopenta[c]thiophen-5-yl)-1H-pyrazole-4-carboxamide]	500 to 10000 nM	
Cn1nc(C2CCC(c3ccccc3)C2)c(C(=O)Nc2ccc(F)c(Cl)c2)c1N (single isomer, unassigned) [AIA-202A, 5-Amino-N-(3-chloro-4-fluorophenyl)-1-methyl-3-(3-phenylcyclopentyl)-1H-pyrazole-4-carboxamide]	< 100 nM	
Cn1nc(C2CCC(c3ccccc3)C2)c(C(=O)Nc2ccc(F)c(Cl)c2)c1N (single isomer, unassigned) [AIA-202B, 5-Amino-N-(3-chloro-4-fluorophenyl)-1-methyl-3-(3-phenylcyclopentyl)-1H-pyrazole-4-carboxamide]	< 100 nM	
Cn1nc(C2CCC(c3ccccc3)C2)c(C(=O)Nc2ccc(F)c(Cl)c2)c1N (single isomer, unassigned) [AIA-202C, 5-Amino-N-(3-chloro-4-fluorophenyl)-1-methyl-3-(3-phenylcyclopentyl)-1H-pyrazole-4-carboxamide]	500 to 10000 nM	
Cn1nc(C2CCC(c3ccccc3)C2)c(C(=O)Nc2ccc(F)c(Cl)c2)c1N (single isomer, unassigned) [AIA-202D, 5-Amino-N-(3-chloro-4-fluorophenyl)-1-methyl-3-(3-phenylcyclopentyl)-1H-pyrazole-4-carboxamide]	< 100 nM	
Cn1nc(C2CC(c3ccccc3)C2)c(C(=O)Nc2ccc(F)c(Cl)c2)c1N (single isomer, unassigned) [AIA-224A, 5-Amino-N-(3-chloro-4-fluorophenyl)-1-methyl-3-(3-phenylcyclobutyl)-1H-pyrazole-4-carboxamide]	< 100 nM	
Cn1nc(C2CC(c3ccccc3)C2)c(C(=O)Nc2ccc(F)c(Cl)c2)c1N (single isomer, unassigned) [AIA-224B, 5-Amino-N-(3-chloro-4-fluorophenyl)-1-methyl-3-(3-phenylcyclobutyl)-1H-pyrazole-4-carboxamide]		100 to 500
CCS(=O)(=O)CC1(O)CC2CC(c3nn(C)c(N)c3C(=O)Nc3ccc(F)c(Cl)c3)CC2C1 (single isomer, unassigned) [AIA-250-1, 5-Amino-N-(3-chloro-4-fluorophenyl)-3-(5-((ethylsulfonyl)nethyl)-5-hydroxyoctahydropentalen-2-yl)-1-methyl-1H-pyrazole-4-carboxamide]		< 100
Cn1nc(C2CC3CC(O)(CS(=O)(=O)C4CC4)CC3C2)c(C(=O)Nc2ccc(F)c(Cl)c2)c1N (single isomer, unassigned) [AIA-252-2, 5-Amino-N-(3-chloro-4-fluorophenyl)-3-(5-((cyclopropylsulfonyl)methyl)-5-hydroxyortahydropentalen-2-yl)-1-methyl-1H-pyrazole-4-carboxamide]		< 100
CCC1OCC2(CC3CC(c4nn(C)c(N)c4C(=O)Nc4ccc(F)c(Cl)c4)CC3C2)O1 (single isomer, unassigned) [AIA-255-3, 5-Amino-N-(3-chloro-4-fluorophenyl)-3-(2′-ethylhexahydro-1H-spiro[pentalene-2,4′-[1,3]dioxolan]-5-yl)-1-methyl-1H-pyrazole-4-carboxamide]		< 100
Cn1nc(C2CC3CC(O)(CSCC(F)(F)F)CC3C2)c(C(=O)Nc2ccc(F)c(Cl)c2)c1N (single isomer, unassigned) [AIA-258-2, 5-Amino-N-(3-chloro-4-fluorophenyl)-3-(5-hydroxy-5-(((2,2,2-trifluoroethyl)thio)methyl)octahydropentalen-2-yl)-1-methyl-1H-pyrazole-4-carboxamide]		< 100
Cn1nc(C2CC3CC(O)(CS(=O)(=O)C(C)(C)C)CC3C2)c(C(=O)Nc2ccc(F)c(Cl)c2)c1N (single isomer, unassigned) [AIA-260-1, 5-Amino-3-(5-((tert-butylsulfonyl)methyl)-5-hydroxyoctahydropentalen-2-yl)-N-(3-chloro-4-fluorophenyl)-1-methyl-1H-pyrazole-4-carboxamide]		< 100
Cn1nc(C2CC3CC(O)(CSC(C)(C)C)CC3C2)c(C(=O)Nc2ccc(F)c(Cl)c2)c1N (single isomer, unassigned) [AIA-262-2, 5-Amino-3-(5-((tert-butylthio)methyl)-5-hydroxyoctahydropentalen-2-yl)-N-(3-chloro-4-fluorophenyl)-1-methyl-1H-pyrazole-4-carboxamide]		< 100
Cn1nc(C2CC3CC(O)(CS(=O)(=O)CCO)CC3C2)c(C(=O)Nc2ccc(F)c(Cl)c2)c1N (single isomer, unassigned) [AIA-266-1, 5-Amino-N-(3-chloro-4-fluorophenyl)-3-(5-hydroxy-5-(((2-hydroxyethyl)sulfonyl)methyl)octahydropentalen-2-yl)-1-methyl-1H-pyrazole-4-carboxamide]		< 100
